Experimental data published in PubChem BioAssay (NCI).
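Interpolation was linear, between the two tested concentrations surrounding the appropriate level; five concentrations were tested over 48 hours in 96-well plates. At the TGI there is no net growth.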 Where a SMILES comes first, the peptide text is derived from it. The star is where a group is joined. Ethyl(2-NMe3+) = C[N+](C)(C)CC*; Boc = CC(C)(C)OC(=O)*

Key:
Test in all cases: inhibition of tumour cell growth, NCI panel, 48 h
[1] = system: UACC-257 melanoma
[2] = system: NCI-H23 lung
[3] = system: SF-539 CNS
[4] = system: PC-3 prostate
[5] = system: BT-549 breast
[6] = system: SN12C renal
[7] = system: T-47D breast
[8] = system: MALME-3M melanoma
[9] = system: SF-268 CNS
[10] = system: SR leukemia
[11] = system: ACHN renal
[12] = system: COLO 205 colon
[13] = system: 786-0 renal
[14] = system: KM12 colon
[15] = system: SK-MEL-2 melanoma
[16] = system: M14 melanoma
[17] = system: SK-OV-3 ovarian
[18] = system: A498 renal

| SMILES | TGI [1] [µM] | TGI [2] [µM] | TGI [3] [µM] | TGI [4] [µM] | TGI [5] [µM] | TGI [6] [µM] | TGI [7] [µM] | TGI [8] [µM] | TGI [9] [µM] | TGI [10] [µM] | TGI [11] [µM] | TGI [12] [µM] | TGI [13] [µM] | TGI [14] [µM] | TGI [15] [µM] | TGI [16] [µM] | TGI [17] [µM] | TGI [18] [µM] |
| --- | --- | --- | --- | --- | --- | --- | --- | --- | --- | --- | --- | --- | --- | --- | --- | --- | --- | --- |
| COc1cc([C@H]2CC(=O)C[C@H](c3cc(OC)c(OC)c(OC)c3)C23C(=O)c2ccccc2C3=O)cc(OC)c1OC | > 100 | > 100 | > 100 | > 100 | > 100 | > 100 | > 100 | > 100 | > 100 | > 100 | > 100 | > 100 | > 100 | > 100 | > 100 | > 100 | > 100 | – |
| CC(NC(=O)C(Cc1ccc(OCC[N+](C)(C)C)cc1)NC(=O)OC(C)(C)C)C(=O)NC(Cc1ccccc1)C(=O)NCC(N)=O (configuration not stated) (Boc-Y(Ethyl(2-NMe3+))AFG-NH2; configuration not given here) | > 100 | 31.8 | 25.5 | > 100 | 45.8 | > 100 | > 100 | 69.7 | 25.7 | – | > 100 | > 100 | 44.6 | > 100 | 25.2 | > 100 | 22.7 | 33.3 |
| COc1cccc(N2C(=O)/C(=C\c3ccccc3)SC2c2cc(OC)c(OC)c(OC)c2)c1 (configuration not stated) | > 100 | > 100 | – | > 100 | > 100 | > 100 | 94.3 | – | > 100 | > 100 | > 100 | > 100 | > 100 | > 100 | > 100 | > 100 | > 100 | 67.7 |
| O=c1n(-c2ccccc2)c(=O)n2n1C1Cc3ccccc3C12 (configuration not stated) | > 100 | > 100 | > 100 | > 100 | > 100 | > 100 | > 100 | – | > 100 | > 100 | > 100 | > 100 | > 100 | > 100 | > 100 | > 100 | > 100 | > 100 |
| COC(=O)c1c2c(cc3c1CC1(Cc4ccc(C(C)=O)cc4C1)C3)CCC2 (configuration not stated) | > 100 | > 100 | > 100 | 82.2 | > 100 | > 100 | > 100 | 61.9 | > 100 | > 100 | > 100 | > 100 | > 100 | > 100 | – | – | > 100 | > 100 |
| COC(=O)[C@@H](NC(=O)N(CCC#N)CCCN(C(=O)N[C@H](Cc1ccccc1)C(=O)OC)c1ccccc1)C(C)C | > 100 | > 100 | > 100 | > 100 | > 100 | > 100 | > 100 | 92.7 | > 100 | – | > 100 | > 100 | > 100 | > 100 | > 100 | > 100 | > 100 | > 100 |
| CC1=C(C(=O)N(C(C)C)C(C)C)CC(C(=O)N(C(C)C)C(C)C)=C(C)N1 | > 100 | > 100 | > 100 | > 100 | > 100 | > 100 | > 100 | – | > 100 | – | > 100 | > 100 | > 100 | > 100 | > 100 | > 100 | > 100 | > 100 |
| COCn1cnc2c(=O)n(-c3ccc(OC)cc3)c(=S)n(-c3ccc(OC)cc3)c21 | > 100 | > 100 | > 100 | > 100 | > 100 | > 100 | > 100 | – | > 100 | > 100 | > 100 | > 100 | > 100 | > 100 | > 100 | > 100 | > 100 | > 100 |
| CC1=C(C)C1[N+](=O)[O-] | > 100 | > 100 | > 100 | > 100 | > 100 | > 100 | > 100 | > 100 | > 100 | – | > 100 | > 100 | > 100 | > 100 | – | > 100 | > 100 | > 100 |
| C=CCN1C(=O)/C(=C/c2ccc(C)cc2)NC1=S | > 100 | > 100 | > 100 | > 100 | > 100 | > 100 | > 100 | – | > 100 | > 100 | > 100 | > 100 | > 100 | > 100 | > 100 | > 100 | > 100 | > 100 |
| Cc1ccc(C(=O)Nc2ccc(CP(=O)(O)O)cc2CP(=O)(O)O)cc1NC(=O)c1cccc(NC(=O)Nc2cccc(C(=O)Nc3cc(C(=O)Nc4ccc(CP(=O)(O)O)cc4CP(=O)(O)O)ccc3C)c2)c1 | > 100 | > 100 | > 100 | > 100 | > 100 | > 100 | > 100 | > 100 | > 100 | – | > 100 | > 100 | > 100 | > 100 | > 100 | > 100 | > 100 | > 100 |
| COc1ccc(NC(=O)/C(=N/NC(N)=S)C2C(=O)NC(=S)NC2=O)c(OC)c1 | > 100 | > 100 | > 100 | > 100 | > 100 | > 100 | > 100 | > 100 | > 100 | – | > 100 | > 100 | > 100 | > 100 | > 100 | > 100 | > 100 | > 100 |
| N#Cc1cc(-c2nc3c(F)cccc3s2)ccc1N | > 100 | > 100 | > 100 | > 100 | > 100 | > 100 | > 100 | > 100 | > 100 | – | > 100 | > 100 | > 100 | > 100 | – | > 100 | > 100 | > 100 |
| CC1(C)C/C(=N/O)c2c(nc3ccc4ccccc4c3c2-c2ccc(Cl)cc2)C1 | 91.2 | 46.7 | 36.4 | > 100 | 30.9 | 22.7 | 34.2 | – | 30.1 | 21 | 19.4 | 72.8 | 15.2 | > 100 | > 100 | > 100 | 34.7 | 39.6 |
| C=CCc1ccccc1CC1(OCC)OC(=O)c2ccccc21 (configuration not stated) | > 100 | > 100 | > 100 | > 100 | > 100 | > 100 | > 100 | – | > 100 | – | > 100 | > 100 | > 100 | – | > 100 | > 100 | > 100 | > 100 |
| CC(C)=c1sc(=C(C)C)c2c1=NC(C)(C)N=2 | > 100 | > 100 | > 100 | > 100 | > 100 | > 100 | > 100 | > 100 | > 100 | – | > 100 | > 100 | > 100 | > 100 | > 100 | > 100 | > 100 | > 100 |
| Cc1ccc(/C=C2\CN(C)CC3C2=NN(c2ccccc2)C3c2ccc(C)cc2)cc1 (configuration not stated) | > 100 | > 100 | – | > 100 | > 100 | > 100 | > 100 | > 100 | > 100 | – | > 100 | > 100 | > 100 | > 100 | > 100 | > 100 | > 100 | > 100 |
| S=C1CSc2c(ccc3ccccc23)N1 | > 100 | > 100 | – | > 100 | > 100 | > 100 | > 100 | > 100 | > 100 | > 100 | > 100 | > 100 | > 100 | > 100 | – | > 100 | > 100 | – |
| CCOC(=O)[C@@H]1CCN2CN(c3ccc(OC)cc3)N=C(c3ccccc3)[C@@]12c1ccccc1 | 49.7 | 73.5 | – | > 100 | 55.2 | 34.7 | 74.6 | 37.9 | > 100 | > 100 | 91.5 | 61.3 | 51.7 | > 100 | 46.1 | 51.3 | > 100 | 53.5 |
| CN(N)/N=N/c1nc[nH]c1[N+](=O)[O-] | > 100 | > 100 | > 100 | > 100 | > 100 | > 100 | > 100 | > 100 | > 100 | – | > 100 | > 100 | 55.2 | > 100 | > 100 | > 100 | > 100 | > 100 |
| COC(=O)C(Cc1ccc(Oc2cc(CC(NC(=O)c3ccccc3)C(=O)OC)ccc2OC)cc1)NC(=O)c1ccccc1 (configuration not stated) | 23.8 | > 82.2 | > 60.2 | > 85.8 | > 81.3 | 21.3 | > 51.4 | 29.8 | 48.9 | – | > 55 | > 73.2 | 30 | > 100 | > 74 | 20.9 | > 100 | > 100 |
| COc1ccc2c(c1)-c1[nH]c3ccc(OC)cc3c1CC2 | 32.4 | 25.8 | 33.7 | 24.1 | 32.9 | 29.3 | 36.6 | 28.7 | 28.1 | 53.2 | 36.5 | 37.4 | 34 | 19 | 28.4 | 29.5 | 33.8 | – |
| COc1cccc(-c2nc3ccccc3c(=O)[nH]2)c1OC | > 100 | > 100 | – | > 100 | > 100 | > 100 | > 100 | > 100 | > 100 | > 100 | > 100 | > 100 | > 100 | > 100 | > 100 | > 100 | > 100 | > 100 |
| CC(C)(C)OC(=O)N1CCC2(C)CC(=O)CC=C12 (configuration not stated) | > 100 | > 100 | > 100 | > 100 | > 100 | > 100 | > 100 | > 100 | > 100 | > 100 | > 100 | > 100 | > 100 | > 100 | > 100 | > 100 | > 100 | – |
| CC(C)(C)c1ccc(-n2c3nc(=O)n(-c4ccccc4CO)c(=O)c-3cc3ccccc32)cc1 | > 100 | > 100 | 88.1 | > 100 | > 100 | > 100 | > 100 | > 100 | > 100 | 73 | > 100 | > 100 | > 100 | > 100 | – | > 100 | – | > 100 |
| Cc1cc2nc(N3C(=O)/C(=C/c4ccccc4S)N=C3c3ccccc3)sc2cc1C | > 100 | – | > 100 | 58.1 | > 100 | 82.6 | > 100 | – | > 100 | > 100 | > 100 | 98.5 | 60.5 | > 100 | 56.7 | > 100 | > 100 | 55.1 |
| c1ccc2c(c1)cc1c3[nH]c4ccccc4c3ccn21 | > 10 | > 10 | > 10 | > 10 | > 10 | > 10 | > 10 | 4.48 | > 10 | > 10 | > 10 | 3.41 | > 10 | > 10 | > 10 | > 10 | > 10 | – |
